{"source": "patent US20190151045A1", "about": "“Device and Methods for Disinfecting Dental Lines” (Toppen Medical Dental LLC, priority 2017, published 2019)", "origin": "cited, not measured here", "settings": "dissipates into molecular oxygen, 0.5 mg/L ozone in dental water line", "note": "Read-outs that look alike come from different tables or passages of the source.", "data": [{"smiles": "O=[O+][O-]", "note": "[ozone]", "values": [{"measurement": "half-life (t1/2) of ozone", "value": "~20", "unit": "min"}, {"measurement": "half-life (t1/2) of ozone", "setting": "listed as Ozone", "value": "about 20 min"}]}]}
